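All cell lines were grown in 96-well plates and treated with compound for 48 hours. GI50 marks 50% less growth. TGI marks complete inhibition of growth.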
These molecules were tested on SK-MEL-2 melanoma (assay: DTP human tumour cell line panel, 48 h).
`Cc1ncc(CCCN(C)C)cc1Nc1ncc2c(n1)-c1ccc(C(F)(F)F)cc1NC(=S)C2` gave a GI50 of 1.08 µM and a TGI of 6.99 µM.
`COc1ccc(-c2nn(-c3ccc(NC(=O)Nc4cc(C(F)(F)F)cc(C(F)(F)F)c4)cc3)cc2-c2ccncc2)cc1Cl` showed a GI50 of 1.93 µM and a TGI of 4.38 µM.
`O=C(CCC1OCCO1)Nc1cc(NCc2ccccc2)ccc1OCc1ccccc1` showed a TGI of 49.7 µM.
For `ClCc1cccc(Cn2cnc3nc(Cl)nc(Cl)c32)c1`, the GI50 was 1.78 µM and the TGI was 3.74 µM.

Each molecule was assayed on SK-MEL-28 melanoma (assay: DTP human tumour cell line panel, 48 h).
`COc1ccc(-c2nn(-c3ccc(NC(=O)Nc4cc(C(F)(F)F)cc(C(F)(F)F)c4)cc3)cc2-c2ccncc2)cc1Cl` showed a GI50 of 2.22 µM and a TGI of 6.18 µM.
Molecule `O=C(CCC1OCCO1)Nc1cc(NCc2ccccc2)ccc1OCc1ccccc1` has a TGI of over 100 µM.
`ClCc1cccc(Cn2cnc3nc(Cl)nc(Cl)c32)c1` gave a GI50 of 0.503 µM and a TGI of 1.13 µM.

These molecules were tested on SK-MEL-5 melanoma (assay: DTP human tumour cell line panel, 48 h).
`Cc1ncc(CCCN(C)C)cc1Nc1ncc2c(n1)-c1ccc(C(F)(F)F)cc1NC(=S)C2` was tested, and the GI50 was under 0.0282 µM and the TGI was 4.85 µM.
Work on `COc1ccc(-c2nn(-c3ccc(NC(=O)Nc4cc(C(F)(F)F)cc(C(F)(F)F)c4)cc3)cc2-c2ccncc2)cc1Cl` yielded a GI50 of 1.93 µM and a TGI of 4.34 µM.
Molecule `O=C(CCC1OCCO1)Nc1cc(NCc2ccccc2)ccc1OCc1ccccc1` has a TGI of 35.3 µM.
`ClCc1cccc(Cn2cnc3nc(Cl)nc(Cl)c32)c1` gave a GI50 of 0.614 µM and a TGI of 1.94 µM.

These molecules were tested on SK-OV-3 ovarian (assay: DTP human tumour cell line panel, 48 h).
With `Cc1cc(C(C)(C)CC(C)(C)C)ccc1OCCOCC[N+](C)(C)Cc1ccccc1` the GI50 was 1.44 µM and the TGI was 2.78 µM.
`Cc1ncc(CCCN(C)C)cc1Nc1ncc2c(n1)-c1ccc(C(F)(F)F)cc1NC(=S)C2` was tested, and the GI50 was under 0.0155 µM and the TGI was 0.448 µM.
For `O=C(CCC1OCCO1)Nc1cc(NCc2ccccc2)ccc1OCc1ccccc1`, the TGI was over 100 µM.
In the case of `ClCc1cccc(Cn2cnc3nc(Cl)nc(Cl)c32)c1`, the GI50 was 8.41 µM and the TGI was 22 µM.

These molecules were tested on SN12C renal (assay: DTP human tumour cell line panel, 48 h).
Work on `Cc1ncc(CCCN(C)C)cc1Nc1ncc2c(n1)-c1ccc(C(F)(F)F)cc1NC(=S)C2` yielded a GI50 of 0.0952 µM and a TGI of 18.4 µM.
Work on `COc1ccc(-c2nn(-c3ccc(NC(=O)Nc4cc(C(F)(F)F)cc(C(F)(F)F)c4)cc3)cc2-c2ccncc2)cc1Cl` yielded a GI50 of 3.13 µM and a TGI of 16.6 µM.
Work on `O=C(CCC1OCCO1)Nc1cc(NCc2ccccc2)ccc1OCc1ccccc1` yielded a TGI of over 100 µM.

The molecules below were run on SNB-19 CNS (assay: DTP human tumour cell line panel, 48 h).
Molecule `Cc1ncc(CCCN(C)C)cc1Nc1ncc2c(n1)-c1ccc(C(F)(F)F)cc1NC(=S)C2` has a GI50 of 0.0713 µM and a TGI of 68.9 µM.
`COc1ccc(-c2nn(-c3ccc(NC(=O)Nc4cc(C(F)(F)F)cc(C(F)(F)F)c4)cc3)cc2-c2ccncc2)cc1Cl` gave a GI50 of 4 µM and a TGI of 27.3 µM.
Molecule `O=C(CCC1OCCO1)Nc1cc(NCc2ccccc2)ccc1OCc1ccccc1` has a TGI of over 100 µM.
Molecule `ClCc1cccc(Cn2cnc3nc(Cl)nc(Cl)c32)c1` has a GI50 of 1.32 µM and a TGI of 2.69 µM.

These molecules were tested on SNB-75 CNS (assay: DTP human tumour cell line panel, 48 h).
For `Cc1ncc(CCCN(C)C)cc1Nc1ncc2c(n1)-c1ccc(C(F)(F)F)cc1NC(=S)C2`, the GI50 was 0.0173 µM and the TGI was 0.975 µM.
Work on `COc1ccc(-c2nn(-c3ccc(NC(=O)Nc4cc(C(F)(F)F)cc(C(F)(F)F)c4)cc3)cc2-c2ccncc2)cc1Cl` yielded a GI50 of 1.8 µM and a TGI of 8.11 µM.
For `O=C(CCC1OCCO1)Nc1cc(NCc2ccccc2)ccc1OCc1ccccc1`, the TGI was over 100 µM.
For `ClCc1cccc(Cn2cnc3nc(Cl)nc(Cl)c32)c1`, the GI50 was 0.912 µM and the TGI was 2.2 µM.

Each molecule was assayed on SR leukemia (assay: DTP human tumour cell line panel, 48 h).
In the case of `Cc1ncc(CCCN(C)C)cc1Nc1ncc2c(n1)-c1ccc(C(F)(F)F)cc1NC(=S)C2`, the GI50 was under 0.01 µM and the TGI was 3.35 µM.
Molecule `COc1ccc(-c2nn(-c3ccc(NC(=O)Nc4cc(C(F)(F)F)cc(C(F)(F)F)c4)cc3)cc2-c2ccncc2)cc1Cl` has a GI50 of 2.54 µM and a TGI of 6.56 µM.
Work on `O=C(CCC1OCCO1)Nc1cc(NCc2ccccc2)ccc1OCc1ccccc1` yielded a TGI of 92 µM.
Work on `ClCc1cccc(Cn2cnc3nc(Cl)nc(Cl)c32)c1` yielded a GI50 of 0.233 µM and a TGI of 2.6 µM.

These molecules were tested on SW-620 colon (assay: DTP human tumour cell line panel, 48 h).
In the case of `Cc1ncc(CCCN(C)C)cc1Nc1ncc2c(n1)-c1ccc(C(F)(F)F)cc1NC(=S)C2`, the GI50 was under 0.01 µM and the TGI was 12.3 µM.
Work on `COc1ccc(-c2nn(-c3ccc(NC(=O)Nc4cc(C(F)(F)F)cc(C(F)(F)F)c4)cc3)cc2-c2ccncc2)cc1Cl` yielded a GI50 of 2.99 µM and a TGI of over 100 µM.
Molecule `O=C(CCC1OCCO1)Nc1cc(NCc2ccccc2)ccc1OCc1ccccc1` has a TGI of over 100 µM.
Work on `ClCc1cccc(Cn2cnc3nc(Cl)nc(Cl)c32)c1` yielded a GI50 of 0.419 µM and a TGI of 1.67 µM.

The molecules below were run on T-47D breast (assay: DTP human tumour cell line panel, 48 h).
`Cc1cc(C(C)(C)CC(C)(C)C)ccc1OCCOCC[N+](C)(C)Cc1ccccc1` showed a GI50 of 0.388 µM and a TGI of 1.81 µM.
Work on `Cc1ncc(CCCN(C)C)cc1Nc1ncc2c(n1)-c1ccc(C(F)(F)F)cc1NC(=S)C2` yielded a GI50 of 0.814 µM and a TGI of 33.8 µM.
In the case of `COc1ccc(-c2nn(-c3ccc(NC(=O)Nc4cc(C(F)(F)F)cc(C(F)(F)F)c4)cc3)cc2-c2ccncc2)cc1Cl`, the GI50 was 4.1 µM and the TGI was 83.3 µM.
In the case of `O=C(CCC1OCCO1)Nc1cc(NCc2ccccc2)ccc1OCc1ccccc1`, the TGI was over 100 µM.

What follows are molecules tested on TK-10 renal (assay: DTP human tumour cell line panel, 48 h).
Molecule `Cc1ncc(CCCN(C)C)cc1Nc1ncc2c(n1)-c1ccc(C(F)(F)F)cc1NC(=S)C2` has a GI50 of 0.65 µM and a TGI of 19.8 µM.
Work on `COc1ccc(-c2nn(-c3ccc(NC(=O)Nc4cc(C(F)(F)F)cc(C(F)(F)F)c4)cc3)cc2-c2ccncc2)cc1Cl` yielded a GI50 of 1.85 µM and a TGI of 7.25 µM.
`O=C(CCC1OCCO1)Nc1cc(NCc2ccccc2)ccc1OCc1ccccc1` gave a TGI of 83.4 µM.
With `ClCc1cccc(Cn2cnc3nc(Cl)nc(Cl)c32)c1` the GI50 was 5.95 µM and the TGI was 10.8 µM.

The molecules below were run on U251 CNS (assay: DTP human tumour cell line panel, 48 h).
Molecule `Cc1ncc(CCCN(C)C)cc1Nc1ncc2c(n1)-c1ccc(C(F)(F)F)cc1NC(=S)C2` has a GI50 of under 0.0194 µM and a TGI of 14 µM.
`COc1ccc(-c2nn(-c3ccc(NC(=O)Nc4cc(C(F)(F)F)cc(C(F)(F)F)c4)cc3)cc2-c2ccncc2)cc1Cl` was tested, and the GI50 was 1.85 µM and the TGI was 5.48 µM.
`O=C(CCC1OCCO1)Nc1cc(NCc2ccccc2)ccc1OCc1ccccc1` showed a TGI of over 100 µM.
With `ClCc1cccc(Cn2cnc3nc(Cl)nc(Cl)c32)c1` the GI50 was 1.1 µM and the TGI was 2.38 µM.

The molecules below were run on UACC-257 melanoma (assay: DTP human tumour cell line panel, 48 h).
`COc1ccc(-c2nn(-c3ccc(NC(=O)Nc4cc(C(F)(F)F)cc(C(F)(F)F)c4)cc3)cc2-c2ccncc2)cc1Cl` was tested, and the GI50 was 3.5 µM and the TGI was 12.5 µM.
In the case of `O=C(CCC1OCCO1)Nc1cc(NCc2ccccc2)ccc1OCc1ccccc1`, the TGI was 53.3 µM.
`ClCc1cccc(Cn2cnc3nc(Cl)nc(Cl)c32)c1` was tested, and the GI50 was 2.48 µM and the TGI was 7.35 µM.

Each molecule was assayed on UACC-62 melanoma (assay: DTP human tumour cell line panel, 48 h).
`Cc1cc(C(C)(C)CC(C)(C)C)ccc1OCCOCC[N+](C)(C)Cc1ccccc1` was tested, and the GI50 was 0.967 µM and the TGI was 2.21 µM.
In the case of `Cc1ncc(CCCN(C)C)cc1Nc1ncc2c(n1)-c1ccc(C(F)(F)F)cc1NC(=S)C2`, the GI50 was 0.0313 µM and the TGI was 17.9 µM.
`COc1ccc(-c2nn(-c3ccc(NC(=O)Nc4cc(C(F)(F)F)cc(C(F)(F)F)c4)cc3)cc2-c2ccncc2)cc1Cl` was tested, and the GI50 was 2.02 µM and the TGI was 5.02 µM.
`O=C(CCC1OCCO1)Nc1cc(NCc2ccccc2)ccc1OCc1ccccc1` was tested, and the TGI was over 100 µM.
With `ClCc1cccc(Cn2cnc3nc(Cl)nc(Cl)c32)c1` the GI50 was 1.02 µM and the TGI was 2.22 µM.

These molecules were tested on UO-31 renal (assay: DTP human tumour cell line panel, 48 h).
`Cc1cc(C(C)(C)CC(C)(C)C)ccc1OCCOCC[N+](C)(C)Cc1ccccc1` gave a GI50 of 2.25 µM and a TGI of 6.65 µM.
In the case of `Cc1ncc(CCCN(C)C)cc1Nc1ncc2c(n1)-c1ccc(C(F)(F)F)cc1NC(=S)C2`, the GI50 was 0.494 µM and the TGI was 12.5 µM.
Molecule `COc1ccc(-c2nn(-c3ccc(NC(=O)Nc4cc(C(F)(F)F)cc(C(F)(F)F)c4)cc3)cc2-c2ccncc2)cc1Cl` has a GI50 of 1.51 µM and a TGI of 6.33 µM.
For `O=C(CCC1OCCO1)Nc1cc(NCc2ccccc2)ccc1OCc1ccccc1`, the TGI was over 100 µM.
For `ClCc1cccc(Cn2cnc3nc(Cl)nc(Cl)c32)c1`, the GI50 was 4.43 µM and the TGI was 9.1 µM.

Reference: PubChem BioAssay (NCI)
